Read-outs that look alike come from different tables or passages of the source.
Experiments:
[1] = target: Myeloid Cell Leukemia 1 (Mcl-1) (Homo sapiens, UniProt Q07820); assay: Terbium labeled Mcl-1 HTRF binding assay (displacement of Cy5-labeled BIM BH3 peptide); settings: 25 pM Tb-Mcl-1, 8 nM Cy5 Bim peptide, Ki=IC50/(1+[L]/Kd), [L]=8 nM, Kd=10 nM, 60 min at room temperature, read-out: Tb-MCL1 Ki
Experimental: Terbium labeled Myeloid Cell Leukemia 1 (Mcl-1) homogeneous time-resolved fluorescence (HTRF) binding assay utilizing the BIM BH3 peptide (H2N—(C/Cy5Mal) WIAQELRRIGDEFN-OH) as the binding partner for Mcl-1.
This assay evaluated inhibition of the BH3 domain: Mcl-1 interaction by measuring the displacement of Cy5-labeled BIM BH3 peptide (H2N—(C/Cy5Mal) WIAQELRRIGDEFN-OH) in the HTRF assay format.
The following assay and stock buffers were prepared for use in the assay: (a) Stock buffer: 10 mM Tris-HCl, pH=7.5+150 mM NaCl, filtered, sterilized, and stored at 4° C.; and (b) 1× assay buffer, where the following ingredients were added fresh to stock buffer: 2 mM dithiothreitol (DTT), 0.0025% Tween-20, 0.1 mg/mL bovine serum albumin (BSA). The 1×Tb-Mcl-1+Cy5 Bim peptide solution was prepared by diluting the protein stock solution using the 1×assay buffer (b) to 25 pM Tb-Mcl-1 and 8 nM Cy5 Bim peptide.
Using the Acoustic ECHO, 100 nL of 100×test compound(s) were dispensed into individual wells of a white 384-well Perkin Elmer Proxiplate, for a final compound concentration of 1×and final DMSO concentration of 1%. Inhibitor control and neutral control (NC, 100 nL of 100% DMSO) were stamped into columns 23 and 24 of assay plate, respectively. Into each well of the plate was then dispensed 10 μL of the 1× Tb-Mcl-1+Cy5 Bim peptide solution. The plate was centrifuged with a cover plate at 1000 rpm for 1 minute, then incubated for 60 minutes at room temperature with plates covered. The TR-FRET signal was read on an BMG PHERAStar FSX MicroPlate Reader at room temperature using the HTRF optic module (HTRF: excitation: 337 nm, light source: laser, emission A: 665 nm, emission B: 620 nm, integration start: 60 μs, integration time: 400 μs).
The BMG PHERAStar FSX MicroPlate Reader was used to measure fluorescence intensity at two emission wavelengths—665 nm and 620 nm—and report relative fluorescence units (RFU) for both emissions, as well as a ratio of the emissions (665 nm/620 nm)*10,000. The RFU values were normalized to percent inhibition as follows:
35% inhibition=(((NC−IC)−(compound−IC))/(NC−IC))*100
where IC (inhibitor control, low signal)=mean signal of 1× Tb-MCl-1+Cy5 Bim peptide+ inhibitor control or 100% inhibition of Mcl-1; NC (neutral control, high signal)=mean signal 1× Tb-MCl-1+Cy5 Bim peptide with DMSO only or 0% inhibition An 11-point dose response curve was generated to determine IC50 values (using GenData) based on the following equation:
Y=Bottom+(Top−Bottom)/(1+10^((log IC50−X)*HillSlope))
where Y=% inhibition in the presence of X inhibitor concentration; Top=100% inhibition derived from the IC (mean signal of Mcl-1+ inhibitor control); Bottom=0% inhibition derived from the NC (mean signal of Mcl-1+ DMSO); Hillslope=Hill coefficient; and IC50=concentration of compound with 50% inhibition in relation to top/neutral control (NC).

[2] = test system: MOLP-8 human multiple myeloma cell line; assay: Caspase-Glo 3/7 apoptosis induction assay in MOLP-8 cells; format: cell-based; settings: 2 hours at 37° C., caspase-3/7 luminescence, averaged over all runs on all batches, read-out: MOLP8 Caspase-Glo AC50
From the text: MCL-1 is a regulator of apoptosis and is highly over-expressed in tumor cells that escape cell death. The assay evaluates the cellular potency of small-molecule compounds targeting regulators of the apoptosis pathway, primarily MCL-1, Bfl-1, Bcl-2, and other proteins of the Bcl-2 family. Protein-protein inhibitors disrupting the interaction of anti-apoptotic regulators with BH3-domain proteins initiate apoptosis.
The Caspase-Glo® 3/7 Assay is a luminescent assay that measures caspase-3 and -7 activities in purified enzyme preparations or cultures of adherent or suspension cells. The assay provides a proluminescent caspase-3/7 substrate, which contains the tetrapeptide sequence DEVD. This substrate is cleaved to release aminoluciferin, a substrate of luciferase used in the production of light. Addition of the single Caspase-Glo® 3/7 Reagent in an “add-mix-measure” format results in cell lysis, followed by caspase cleavage of the substrate and generation of a “glow-type” luminescent signal. This assay uses the MOLP-8 human multiple myeloma cell line, which is sensitive to MCL-1 inhibition.
• Perkin Elmer Envision • Multidrop 384 and small volume dispensing cassettes • Centrifuge • Countess automated cell counter • Countess counting chamber slides • Assay plate: ProxiPlate-384 Plus, White 384-shallow well Microplate • Sealing tape: Topseal A plus • T175 culture flask
Cell cultures were maintained between 0.2 and 2.0×10^6 cells/mL. The cells were harvested by collection in 50 mL conical tubes. The cells were then pelleted at 500 g for 5 mins before removing supernatant and resuspension in fresh pre-warmed culture medium. The cells were counted and diluted as needed.
The assay reagent was prepared by transferring the buffer solution to the substrate vial and mixing. The solution may be stored for up to 1 week at 4° C. with negligible loss of signal.
Compounds were delivered in assay-ready plates (Proxiplate) and stored at −20° C. Assays always include 1 reference compound plate containing reference compounds. The plates were spotted with 40 nL of compounds (0.5% DMSO final in cells; serial dilution; […] highest conc. 1/3 dilution, 10 doses, duplicates). The compounds were used at room temperature and 4 μL of pre-warmed media was added to all wells except column 2 and 23. The negative control was prepared by adding 1% DMSO in media. The positive control was prepared by adding the appropriate positive control compound in final concentration of […] in media. The plate was prepared by adding 4 μL negative control to column 23, 4 μL positive control to column 2 and 4 μL cell suspension to all wells in the plate. The plate with cells was then incubated at 37° C. for 2 hours. The assay signal reagent is the Caspase-Glo solution described above, and 8 μL was added to all wells. The plates were then sealed and measured after 30 minutes.
The activity of a test compound was calculated as percent change in apoptosis induction as follows: […]

Myeloid Cell Leukemia 1 (Mcl-1), sequence (Q07820 whole entry): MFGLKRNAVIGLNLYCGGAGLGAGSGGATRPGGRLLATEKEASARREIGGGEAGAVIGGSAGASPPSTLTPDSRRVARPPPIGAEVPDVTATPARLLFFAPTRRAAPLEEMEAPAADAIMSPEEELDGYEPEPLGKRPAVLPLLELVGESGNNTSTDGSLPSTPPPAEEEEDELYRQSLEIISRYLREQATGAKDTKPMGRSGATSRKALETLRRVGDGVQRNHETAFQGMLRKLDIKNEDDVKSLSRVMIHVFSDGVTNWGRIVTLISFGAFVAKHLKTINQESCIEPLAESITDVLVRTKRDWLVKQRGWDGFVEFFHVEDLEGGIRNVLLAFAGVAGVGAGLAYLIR

| Structure (SMILES) | Ki [1] [nM] | AC50 [2] [nM] | melting point [°C] | AC50 ([2]; Homo sapiens, MOLP-8, 2 h) [nM] |
| --- | --- | --- | --- | --- |
| CCc1c2c(nn1C)COCc1cc(n(C)n1)CSc1cc(c3ccccc3c1)OCCCc1c(C(=O)O)n(C)c3c-2c(Cl)ccc13 (single isomer, unassigned) [Compound 8] | 8.12 | 5380 | 264.21 | – |
| Cc1c2c(nn1C)C(C)OCc1cc(n(C)n1)CSc1cc(c3ccccc3c1)OCCCc1c(C(=O)O)n(C)c3c-2c(Cl)ccc13 (single isomer, unassigned) [Compound 11] | 33.1 | 18100 | – | – |
| Cc1c2c(nn1C)C(C)OCc1cc(n(C)n1)CSc1cc(c3ccccc3c1)OCCCc1c(C(=O)O)n(C)c3c-2c(Cl)ccc13 (single isomer, unassigned) [Compound 9] | 0.241 | 246 | – | – |
| Cc1c2c(nn1C)COCc1cc(nn1CCN(C)C)CSc1cc(c3ccccc3c1)OCCCc1c(C(=O)O)n(C)c3c-2c(Cl)ccc13 (single isomer, unassigned) [Compound 15] | 0.111 | – | – | 388 |
| COCCOCCn1nc(C)c2c1COCc1cc(n(C)n1)CCc1cc(c3ccc(F)cc3c1)OCCCc1c(C(=O)O)n(C)c3c-2c(Cl)ccc13 (single isomer, unassigned) [Compound 19] | 1.34 | 626 | – | – |
| Cc1c2c(nn1C)COCc1cc(n(CCN(C)C)n1)CSc1cc(c3ccccc3c1)OCCCc1c(C(=O)O)n(C)c3c-2c(Cl)ccc13 (single isomer, unassigned) [Compound 16] | 0.072 | – | – | 185 |
| Cc1c2c(nn1C)COCc1cc(n(C)n1)CCc1cc(c3ccccc3c1)OCCCc1c(C(=O)O)n(C)c3c-2c(Cl)ccc13 (single isomer, unassigned) [Compound 1] | 0.047 | 83.3 | – | – |
| Cc1c2c(nn1C)COCc1cc(n(C)n1)CSc1cc(c3ccccc3c1)OCCCc1c(C(=O)O)n(C)c3c-2c(Cl)ccc13 (single isomer, unassigned) [Compound 6] | 11.7 | 6640 | – | – |
| Cc1c2c(nn1C)C(C)OCc1cc(n(C)n1)CSc1cc(c3ccccc3c1)OCCCc1c(C(=O)O)n(C)c3c-2c(Cl)ccc13 (single isomer, unassigned) [Compound 10] | 19.8 | 14700 | – | – |
| COCCOCCn1nc2c(c1C)-c1c(Cl)ccc3c(c(C(=O)O)n(C)c13)CCCOc1cc(cc3cc(F)ccc13)CCc1cc(nn1C)COC2 (single isomer, unassigned) [Compound 20] | 4.14 | 3450 | – | – |
| COCCOCCn1nc2c(c1C)-c1c(Cl)ccc3c(c(C(=O)O)n(C)c13)CCCOc1cc(cc3cc(F)ccc13)CCc1cc(nn1C)COC2 (single isomer, unassigned) [Compound 18] | 0.02 | 17.6 | – | – |
| COCCOCCn1nc(C)c2c1COCc1cc(n(C)n1)CCc1cc(c3ccc(F)cc3c1)OCCCc1c(C(=O)O)n(C)c3c-2c(Cl)ccc13 (single isomer, unassigned) [Compound 17] | 0.025 | 7.4 | – | – |
| Cc1c2c(nn1C)COCc1cc(n[nH]1)CSc1cc(c3ccccc3c1)OCCCc1c(C(=O)O)n(C)c3c-2c(Cl)ccc13 (single isomer, unassigned) [Compound 14] | 21.6 | 18000 | – | – |
| Cc1c2c(nn1C)COCc1cc(n(C)n1)CSc1cc(c3ccccc3c1)OCCCc1c(C(=O)O)n(C)c3c-2c(Cl)ccc13 (single isomer, unassigned) [Compound 5] | 0.057 | 83.7 | – | – |
| Cc1c2c(nn1C)C(C)OCc1cc(n(C)n1)CSc1cc(c3ccccc3c1)OCCCc1c(C(=O)O)n(C)c3c-2c(Cl)ccc13 (single isomer, unassigned) [Compound 12] | 0.036 | 59.4 | – | – |
| Cc1c2c(nn1C)COCc1cc(n(C)n1)CCc1cc(c3ccccc3c1)OCCCc1c(C(=O)O)n(C)c3c-2c(Cl)ccc13 (single isomer, unassigned) [Compound 2] | 0.444 | 954 | – | – |
| Cc1c2c(nn1C)COCc1cc(n[nH]1)CSc1cc(c3ccccc3c1)OCCCc1c(C(=O)O)n(C)c3c-2c(Cl)ccc13 (single isomer, unassigned) [Compound 13] | 0.128 | 411 | – | – |
| CCc1c2c(nn1C)COCc1cc(n(C)n1)CSc1cc(c3ccccc3c1)OCCCc1c(C(=O)O)n(C)c3c-2c(Cl)ccc13 (single isomer, unassigned) [Compound 7] | 0.055 | 83.7 | 269.16 | – |
